Experiment [1] relates to M059J cells (defective DNA-PKcs). Briefly: Colony formation assay (radiosensitivity), M059J. The experiment is classed as cell-based. How it is done: (§1) Colony number was determined with a dissecting microscope. […] The following formula was used: […]
(§2) To test this possibility, colonyforming assays were performed in cell lines with defective ATM (GM9607) or DNA-PKcs (M059J). […] Because GM9607 cells are ATM-deficient and have functional ATR and DNA-PKcs, these observations strongly indicate that wtNIP can specifically target ATM, but not ATR or DNA-PKcs, to achieve radiosensitization.

For experiment [2], the system named is NBS1 phosphorylation on serine 343 in DU-145 cells. Briefly: IR-induced NBS1 pSer343 focus formation, DU-145. The experiment is classed as cell-based, human. The note with it: DU-145, 10 μM peptide, 6Gy, 120 minutes. From the text:
(§3) Error bars represent +/−1 SD, graphed are the mean of three independent experiments.
(§4) To further support the idea that wtNIP can inhibit ATM-mediated DNA damage pathways, IR-induced NBS1 focus formation, an event considered to be an ATM-dependent process at the sites of DSBs (Lim et al., 2000) was investigated. NBS1 foci are a result of ATM-mediated NBS1 phosphorylation on serine 343. […] The average number of foci in mock-irradiated HeLa cells was 6, 8, and 6 for R9, wtNIP, and scNIP, respectively.

Experiment [3] deals with GM9607 cells (defective ATM). Briefly: Colony formation assay (radiosensitivity), GM9607. The experiment is classed as cell-based, human. How it is done: as §1, §2
For experiment [4], the system named is NBS1 phosphorylation on serine 343 in HeLa cells. Briefly: IR-induced NBS1 pSer343 focus formation, HeLa. It counts as cell-based, human.
Source text: as §3, §4

Experiment [5] deals with γ-H2AX foci in DU-145 cells. Briefly: IR-induced γ-H2AX focus formation, DU-145. The note with it: 10 μM peptide, 6Gy. It counts as cell-based, human.
Source text: as §3
(§5) wtNIP Inhibits IR-Induced γ-H2AX and NBS1 pSer343 Focus Formation: One of the earliest responses to IR-induced DNA damage is the formation of γ-H2AX foci, which requires functional ATM (Burma et al., 2001; Furuta et al., 2003). […] Immunofluorescence microscopy was used to detect the presence of γ-H2AX foci in mock-irradiated or irradiated cells in the presence of R9, wtNIP or scNIP. […] Therefore, IR-induced γ-H2AX focus formation can be inhibited by wt-NIP.

Experiment [6] deals with HeLa cells. Briefly: Colony formation assay (radiosensitivity), HeLa. How it is done:
Shown in A (HeLa), C (MO59J) and D (GM9607) are the susvival curves after indicated doses of radiation. Error bars represent +/−1 SEM, graphed are the mean of three independent experiments.
Colony formation assays: To determine the radiosensitivity, the colony forming assay was incorporated. Cells were harvested with 0.125% trypsin-0.05% EDTA, pelleted and re-suspended in 1 ml fresh media with a 22 g needle to disperse clumps prior to hemocytometer counting in trypan blue. Cells were then plated at limiting dilutions in […] and allowed to adhere overnight. Cultures were treated with PBS, R9, wtNIP, or scNIP for 1 hour, and irradiated (0-6Gy). Fresh peptides were added every four hours until 24 hours after IR, when the medium was replaced with peptide-free medium. Cultures were incubated for 10-12 days, harvested and stained with 0.5% crystal violet in methanol. Colony number was determined with a dissecting microscope. A population of >50 cells was counted as one colony, and the number of colonies was expressed as a percentage of the value for untreated mock irradiated control cells. The surviving curves were plotted by linear regression analyses and the D0 value represents the radiation dose that leads to 37% of survival. To determine the radiosensitizing potential of the peptides in comparison to other small molecule inhibitors, the sensitizing enhancement ratio (SER) was calculated based on the dose of radiation required to reduce survival to 37% in the presence of scNIP or wtNIP. The following formula was used: […]
Statistics: To establish statistical significance, Student's t-test was incorporated. The data were first fit to each experimental group over a dose range of 0-6Gy. Significant differences were established at p<0.05.
FIG. 6A depicts the survival curves for HeLa cells treated with R9, wtNIP, or scNIP over a dose range of 0 to 6 Gy.

Experiment [7] addresses T1, NBS1-ATM interaction (Homo sapiens, UniProt Q13315).
T1 construct: endogenous in cells; host or cells: HeLa
Briefly: Co-immunoprecipitation of ATM with NBS1 in peptide-treated cells. It counts as cell-based. How it is done:
HeLa cells treated with the NIP peptides were irradiated (0 or 6Gy). Immunoprecipitation was performed with a rabbit NBS1 antibody, and Western blotting was performed with monoclonal antibodies against ATM, NBS1 or MRE11.
Immunoprecipitation and Western blotting: For co-immunoprecipitation of ATM, NBS1 and MRE11, cells were lysed 1 hour in ice-cold lysis buffer, which consisted of 10 mM Tris-HCl (pH 7.5), 100 mM NaCl, 5 mM EDTA, 0.5% NP-40, 5 mM Na3VO4, 1 mM NaF, and 1 mM PMSF. After centrifugation, supernatants were incubated with indicated antibodies. After extensive washing with the lysis buffer, immunoprecipitates were analyzed by immunoblot using specific antibodies. For western blotting analysis, samples (cell lysates or immunoprecipitates) were separated on 4-12% SDS-poly-acrylamide gels, transferred to nitrocellulose membranes, and probed with various antibodies.
wtNIP Abrogated the NBS1-ATM Interaction: To investigate whether R9-conjugated NIP peptides could inhibit NBS1-ATM interactions, coimmunoprecipitation experiments were performed in cells treated with the NIP peptides. Four hours after peptide treatment, HeLa cells were harvested and subjected to immunoprecipitation using an anti-NBS1 antibody. The immunoprecipitates were then blotted with anti-ATM, NBS1, and MRE11 antibodies.

Experiment [8] relates to γ-H2AX foci in HeLa cells. Briefly: IR-induced γ-H2AX focus formation, HeLa. It counts as cell-based, human.
Source text: as §3, §5

Peptide text beside a SMILES is read from it. * marks the point of attachment. Biotin = O=C1N[C@H]2[C@H](CS[C@H]2CCCCC(=O)*)N1

T1 sequence (Q13315 whole entry): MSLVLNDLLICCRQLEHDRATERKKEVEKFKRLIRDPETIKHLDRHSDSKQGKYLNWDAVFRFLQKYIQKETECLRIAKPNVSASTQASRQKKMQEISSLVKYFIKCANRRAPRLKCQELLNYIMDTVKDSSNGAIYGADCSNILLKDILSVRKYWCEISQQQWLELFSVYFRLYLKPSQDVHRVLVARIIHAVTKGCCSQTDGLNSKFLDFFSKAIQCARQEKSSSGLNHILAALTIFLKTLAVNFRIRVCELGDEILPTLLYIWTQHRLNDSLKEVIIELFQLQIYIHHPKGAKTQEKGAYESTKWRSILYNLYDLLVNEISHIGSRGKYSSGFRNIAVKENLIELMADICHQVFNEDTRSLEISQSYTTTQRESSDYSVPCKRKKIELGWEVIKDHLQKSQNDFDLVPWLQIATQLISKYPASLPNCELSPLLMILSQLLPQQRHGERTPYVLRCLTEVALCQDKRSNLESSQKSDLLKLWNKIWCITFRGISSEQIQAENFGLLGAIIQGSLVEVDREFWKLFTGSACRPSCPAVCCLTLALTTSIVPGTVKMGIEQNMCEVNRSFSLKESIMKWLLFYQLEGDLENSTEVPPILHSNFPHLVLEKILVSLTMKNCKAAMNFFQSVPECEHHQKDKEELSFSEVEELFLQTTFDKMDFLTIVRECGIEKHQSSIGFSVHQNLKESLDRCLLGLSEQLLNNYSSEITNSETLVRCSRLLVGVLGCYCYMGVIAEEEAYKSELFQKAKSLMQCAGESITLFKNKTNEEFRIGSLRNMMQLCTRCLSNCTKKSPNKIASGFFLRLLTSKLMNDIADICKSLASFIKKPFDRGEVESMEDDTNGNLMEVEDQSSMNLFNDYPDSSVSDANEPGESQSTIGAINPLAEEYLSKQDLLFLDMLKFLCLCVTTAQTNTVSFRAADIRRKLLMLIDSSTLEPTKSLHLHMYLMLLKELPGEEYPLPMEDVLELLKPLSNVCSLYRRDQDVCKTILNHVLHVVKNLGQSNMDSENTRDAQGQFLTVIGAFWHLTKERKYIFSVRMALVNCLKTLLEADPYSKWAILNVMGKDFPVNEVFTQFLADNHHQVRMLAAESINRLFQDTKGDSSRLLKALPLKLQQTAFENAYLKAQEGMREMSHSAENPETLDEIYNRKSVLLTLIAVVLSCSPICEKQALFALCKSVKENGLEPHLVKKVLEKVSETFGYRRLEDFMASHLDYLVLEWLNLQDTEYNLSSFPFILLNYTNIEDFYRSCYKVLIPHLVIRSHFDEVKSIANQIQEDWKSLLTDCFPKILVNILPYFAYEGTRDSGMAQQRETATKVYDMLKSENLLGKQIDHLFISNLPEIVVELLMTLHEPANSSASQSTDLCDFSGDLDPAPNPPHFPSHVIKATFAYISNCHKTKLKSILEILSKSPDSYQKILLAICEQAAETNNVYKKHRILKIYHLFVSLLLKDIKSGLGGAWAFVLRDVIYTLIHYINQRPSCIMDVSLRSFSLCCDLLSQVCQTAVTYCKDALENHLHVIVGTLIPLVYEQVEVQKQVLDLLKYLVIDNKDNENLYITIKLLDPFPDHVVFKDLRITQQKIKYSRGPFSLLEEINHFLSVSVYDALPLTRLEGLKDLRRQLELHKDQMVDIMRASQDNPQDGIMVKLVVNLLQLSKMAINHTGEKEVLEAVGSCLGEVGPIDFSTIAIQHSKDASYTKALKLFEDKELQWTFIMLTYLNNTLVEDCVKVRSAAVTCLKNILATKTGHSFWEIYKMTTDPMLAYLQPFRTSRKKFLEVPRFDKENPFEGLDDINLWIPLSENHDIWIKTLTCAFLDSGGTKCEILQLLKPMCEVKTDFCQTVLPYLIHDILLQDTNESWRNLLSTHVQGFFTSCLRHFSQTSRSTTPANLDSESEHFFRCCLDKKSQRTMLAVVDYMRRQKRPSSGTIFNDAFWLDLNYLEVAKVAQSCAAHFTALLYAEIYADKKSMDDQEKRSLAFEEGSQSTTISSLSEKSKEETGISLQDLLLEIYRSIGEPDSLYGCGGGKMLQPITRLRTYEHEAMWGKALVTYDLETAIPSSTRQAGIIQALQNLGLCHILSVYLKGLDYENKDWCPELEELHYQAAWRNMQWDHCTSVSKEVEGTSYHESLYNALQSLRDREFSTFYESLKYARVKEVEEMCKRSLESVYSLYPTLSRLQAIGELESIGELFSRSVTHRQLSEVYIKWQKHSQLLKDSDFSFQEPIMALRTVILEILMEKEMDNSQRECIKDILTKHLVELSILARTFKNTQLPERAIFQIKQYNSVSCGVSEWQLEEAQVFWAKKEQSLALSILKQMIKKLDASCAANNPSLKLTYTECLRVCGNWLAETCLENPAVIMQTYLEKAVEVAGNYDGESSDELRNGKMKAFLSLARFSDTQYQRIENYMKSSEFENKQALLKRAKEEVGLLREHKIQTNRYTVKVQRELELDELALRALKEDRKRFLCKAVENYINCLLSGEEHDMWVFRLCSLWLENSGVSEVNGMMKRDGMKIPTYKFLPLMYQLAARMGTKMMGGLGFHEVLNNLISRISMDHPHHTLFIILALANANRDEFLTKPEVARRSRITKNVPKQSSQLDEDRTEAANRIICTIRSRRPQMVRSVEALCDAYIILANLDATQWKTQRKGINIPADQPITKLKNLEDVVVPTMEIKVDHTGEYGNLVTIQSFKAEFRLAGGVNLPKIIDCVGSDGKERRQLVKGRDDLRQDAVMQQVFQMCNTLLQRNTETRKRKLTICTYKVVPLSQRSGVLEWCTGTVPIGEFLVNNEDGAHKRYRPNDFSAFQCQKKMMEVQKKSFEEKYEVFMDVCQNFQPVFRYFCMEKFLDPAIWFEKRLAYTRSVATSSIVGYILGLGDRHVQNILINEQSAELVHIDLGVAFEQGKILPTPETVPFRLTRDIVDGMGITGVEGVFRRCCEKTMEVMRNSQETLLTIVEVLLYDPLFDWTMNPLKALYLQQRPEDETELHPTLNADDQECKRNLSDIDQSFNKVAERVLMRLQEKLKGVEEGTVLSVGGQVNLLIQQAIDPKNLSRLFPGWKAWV

In experiment [1], `CC(C)C[C@H](NC(=O)[C@H](CC(=O)O)NC(=O)[C@H](CC(=O)O)NC(=O)[C@H](C)NC(=O)[C@H](CC(C)C)NC(=O)[C@H](CO)NC(=O)[C@H](CCC(=O)O)NC(=O)[C@H](CCC(=O)O)NC(=O)[C@H](CCCCN)NC(=O)[C@H](CCCNC(=N)N)NC(=O)[C@H](CCCNC(=N)N)NC(=O)[C@H](CCCNC(=N)N)NC(=O)[C@H](CCCNC(=N)N)NC(=O)[C@H](CCCNC(=N)N)NC(=O)[C@H](CCCNC(=N)N)NC(=O)[C@H](CCCNC(=N)N)NC(=O)[C@H](CCCNC(=N)N)NC(=O)[C@H](CCCNC(=N)N)NC(=O)CCCC[C@@H]1SC[C@@H]2NC(=O)N[C@@H]21)C(=O)O` [wtNIP] (Biotin-RRRRRRRRRKEESLADDL-OH) yielded an SER of 1.83. In addition, the change in radiosensitivity result in experiment [1] is given as “increase in radiosensitivity”; in experiment [3], “no change in radiosensitivity”. In addition, the “IR-induced NBS1 phosphorylation” value in experiment [2] is listed as “abrogates IR-induced NBS1 phosphorylation”. In addition, in experiment [4] (HeLa cells after treatment with 6-Gy IR), the “NBS1 pSer343 foci per nucleus” value worked out at 6 foci per nucleus. In experiment [4] (compared with R9 or scNIP treated cells), the “NBS1 phosphorylation (anti-phospho-Ser343 NBS1 antibody)” value is “significantly inhibited”. Besides, the “average number of NBS1 pSer343 foci” value in experiment [4] (mock-irradiated HeLa cells) turned out to be 8. The “IR-induced γ-H2AX focus formation” value in experiment [5] is reported as “significantly reduced H2AX foci/nucleus”. The “D0 (mean lethal dose required for 37% survival)” value in experiment [6] was found to be 1.9. For the same compound, the “SER (dose required to reduce survival to 37%, scNIP versus wtNIP)” value in experiment [6] is 1.58. Moreover, the sensitizer enhancement ratio in experiment [6] (2Gy) is recorded as 1.66; in experiment [6] (4Gy), 2.61; in experiment [6] (6Gy), 3.12. The “effect on radiosensitivity / IR-induced survival” value in experiment [6] (dose range 0 to 6 Gy) is recorded as “can significantly decrease IR-induced survival”. Also, the “ATM-NBS1 association (anti-NBS1 immunoprecipitation, anti-ATM blot)” value in experiment [7] (HeLa cells treated with IR) is “effect similar to that in unirradiated cells”; in experiment [7] (HeLa cells, four hours after peptide treatment, unirradiated), “NBS1 was no longer able to bring down ATM”. In addition, the “average number of γ-H2AX foci/nucleus” value in experiment [8] (10 μM peptide, 30 minutes after 6Gy IR) was found to be 6.9 foci/nucleus. Moreover, in experiment [8] (30 minutes after treatment with 6Gy IR), the “inhibition of γ-H2AX foci formation” value is given as “can inhibit γ-H2AX foci formation”.
